One block for each compound: values may come before it.
Columns and labels:
[1] = Phase solubility study of MTX in cyclodextrin solutions; type: physicochemical; conditions: MTX with the cyclodextrin, aqueous solution, 25 °C, 1:1 complex
Protocol: The degree of complexation between MTX and β-CDs was determined through phase solubility experiments, as established by Higuchi and Conners. Briefly, an excess of MTX was added to the 10 mL aqueous solution of increasing concentrations (0 to 15 mM) containing each of β-CD, HP-β-CD, M-β-CD, and DM-β-CD. The samples tubes were then vortexed for a few seconds and placed in a water bath maintained at 100 rpm in 25 °C for 5 days (Maxturdy-30; Daihan Scientific, Wonju, Korea) to obtain the saturated complex suspension. The suspension samples obtained were then centrifuged at 10,000 rpm for 10 min and the supernatant was collected, and filtered using a 0.45 µm syringe filter. The samples were then diluted with a mobile phase to obtain the suitable concentrations before being quantified using a HPLC system. All concentrations were made in triplicate (n = 3).
The outcomes of the phase solubility tests were plotted against the known CD and MTX concentration in the sample and the resulting regression profiles was used to derive the association constant (Kα). The apparent association constant (Kα) was calculated from the phase solubility curve according to the following equation:(1) Kα=D :CD/D×CD=Slope/So1−Slope
The complexation efficiency (CE) of the IC system was calculated from the Slope of the phase solubility profiles. (2) CE=D :CD/CD=So×Kα=Slope/1−Slope

[2] = Particle size distribution by laser diffraction; type: physicochemical; conditions: powder
Protocol: The complete particle size distribution of free MTX powder and all four MTX-CD IC formulations was investigated by laser diffraction (Mastersizer 3000; Malvern Instruments, Malvern, UK). The particle size/distribution is expressed as Dx10, Dx50, and Dx90, taken from the cumulative distribution, where the particle diameters are measured at the 10th, 50th, and 90th percentiles, respectively. The experiments were performed in triplicate.

[3] = In vivo pharmacokinetic study after oral administration; parameters: species or system Sprague-Dawley rats; conditions: rats, equiv. 20 mg/kg MTX, n = 6
Protocol: To assess the in vivo pharmacokinetic parameters of free MTX and MTX-CD IC formulations, 30 male Sprague-Dawley rats (6–8 weeks old, weighing 280 ± 20 g) were used (Nara Biotech., Seoul, Korea). All the animals were fed with a normal laboratory diet and water and left for acclimatization in a laboratory environment for 3 days at 23–25 °C/50–55% RH. Care and handling of animals complied with the provisions of guidelines defined and agreed upon by the Institutional Animal Care and Use Committee at the Kyungpook National University (permit number. 2019-0054).
Before the experiment, the animals were divided into five groups with 6 animals per group and made to fast overnight. Each rat, anesthetized with ether, was fixed on a surgical board in the supine position by a thread. A polyethylene tube containing 50 IU/mL of heparin in saline was inserted into the right femoral artery of the rat for cannulation. Then, either 1 mL aqueous suspension of free MTX or the four MTX-CD IC formulations (Equiv. to 20 mg/kg of MTX) was administered orally to each of the rats using oral gavage. Blood samples (~0.3 mL) were drawn from the planted tube at various time periods of 5, 15, 30, 60, 120, 240, 480, 720, and 1440 min after the oral administration. The samples were then immediately transferred into heparin-containing microtubes and centrifuged at 10,000 rpm for 10 min to extract the plasma. The extracted plasma samples were transferred to other microtubes and stored at −20 °C until further analysis by HPLC.
Plasma (90 μL) was mixed with 10 μL of theophylline solution (1000 μg/mL in MeOH) as the internal standard and 100 μL of methanol, respectively. The samples (200 μL) were then centrifuged at 13,000 rpm for 10 min and the upper clear supernatant layer was drawn and injected into the HPLC system (20 μL) for the quantification of MTX. In addition, the blood samples drawn at pre-dose (0 h) were used to draw a six-point calibration plot. The Slope of the graph was linear with R^2 = 0.995 over the range of 25–2000 ng/mL. The mobile phase composition, flow rate, analytical column used, and UV wavelength of the HPLC method was similar to that described in Section 2.3. The pharmacokinetic (PK) parameters such as maximal plasma concentration (Cmax), time to reach Cmax (Tmax), were obtained from the plasma concentration vs. time plots. Moreover, the area under the plasma concentration vs. time curve (AUC0–∞) was calculated using the linear trapezoidal summation rule and elimination half-life (t1/2), and elimination rate constant (Kel) were obtained using non-compartmental model WinNonlin software (Pharsight Corp., Mountain View, CA, USA). Differences in the PK parameters were assessed with the one-way ANOVA test and a p value of less than 0.05 (p < 0.05) was considered statistically significant.

[4] = Photostability assessment; type: physicochemical; conditions: powder, 20 days, 25 °C/60% RH, 1.2 million lux·hr
Protocol: The free MTX powder and the prepared IC formulations were subjected to UV irradiation for a period of 20 days. The powdered samples were spread over the bottom surface of transparent glass vials and stored at 25 °C/60% RH in a photostability chamber (Model 6545-2; Caron, Marietta, OH, USA). There, the samples were exposed to a light source of 1.2 million lux·hr intensity. At scheduled time intervals, a few mg of the sample was drawn, and assayed for the drug content by HPLC method, as described above. At the end of the study period, the samples were physically inspected for any physical changes on the stability of MTX.

Caco-2 cells [5] = assay: MTT cytotoxicity assay; type: cell-based, human; conditions: up to 200 µM, 24 h incubation
Protocol: An MTT assay was used to assess the potential cytotoxic behavior of MTX and MTX/DM-β-CD on human intestinal epithelial cancer cells (Caco-2). The Caco-2 cells were grown in DMEM supplemented with 10% FBS, 1% v/v sodium pyruvate, L-glutamine, penicillin, and MEM non-essential amino acids. The cells (2 × 10^4 cells/well) were then seeded onto 96-well transwell plates and incubated at 37 °C with 5% CO2 for 24 h. New medium containing the tested formulations i.e., MTX and MTX/DM-β-CD (IC4), with varying concentrations, were added and incubated for 24 h. The culture medium was then aspirated, and the viability of the cells was determined by adding 20 μL/well of MTT solution to each 96-well plate and incubating for another 4 h. The formazan crystals were dissolved by adding 150 μL/well DMSO. The developed formazan was assayed at 570 nm, using a microplate reader with untreated cells serving as a control. All the tests were carried out in two microplates with six parallel wells each.

[6] = In vitro Caco-2 permeation experiment; type: in vitro ADME; conditions: human, Caco-2 monolayer, 50 µg/mL MTX
Protocol: The in vitro permeability of MTX and MTX/DM-β-CD formulation was evaluated using Caco-2 cells (passage no 45) and performed like the previously reported method. The cells were seeded (5 × 10^5 cells/well) onto filter inserts from 12-well transwell plates and grown at 37 °C with 5% CO2 for 24 h. The cells were then cultured for three weeks, with the media being replaced on alternate days. Caco-2 cells with TEER ≥ 500 Ω·cm^2 were used in this experiment, which is indicative of adequate monolayer formation.
To evaluate the A to B transfer, the medium from each well was replaced with prewarmed HBSS (washing of monolayer) and maintained at 37 °C for 15 min. The HBSS solution on both sides of the cell monolayer was removed by decanting and aspiration from the lower end of the plate well. Then, 0.5 mL of HBSS (pH 7.4) medium containing 50 µg/mL of MTX alone or eqvt. concentration of MTX/DM-β-CD formulation was placed to the dosing compartment (A) and 1.5 mL of fresh HBSS in the receiving compartment (B). […] MTX was quantified at m/z 455.2 ⟶ 308.1 while berberine at m/z 336.1 ⟶ 320.0.
The apparent permeability coefficient (Papp, cm/s) was calculated as:(3) Papp=(dQ/dt)/(C0×A)
The efflux ratio (ER) was calculated as:(4) ER=Papp (B→A)/Papp (A→B) where, Papp (B → A) and Papp (A → B) represents the apparent permeability of the investigated formulations.

[7] = cited from earlier work
[8] = for doses >40 mg/m^2; cited from earlier work
Caco-2 cells [9] = system: Caco-2 cells; parameters: method as in PMID 29498663, PMID 31761193; conditions: read-out: half-maximal inhibitory concentration (IC50) against Caco-2 cells; cited from earlier work
[10] = male, Sprague-Dawley, rat, plasma

Compound: CN(Cc1cnc2nc(N)nc(N)c2n1)c1ccc(C(=O)N[C@@H](CCC(=O)O)C(=O)O)cc1 [MTX, Methotrexate]
Dx (10) [2]: 3.60 ± 0.48 μm | Dx (50) [2]: 14.03 ± 2.97 μm | Dx (90) [2]: 103.73 ± 12.13 μm | AUC [3, 10]: 1740 ± 295 ng·h/mL | Tmax [3, 10]: 1.13 ± 0.23 h | half-life [3, 10]: 5.4 ± 0.72 h | k el [3, 10]: 3.61e-05 s⁻¹ | Cmax [3]: 265.63 ± 57.05 ng/mL | decrease in MTX concentration after UV irradiation [4]: 36.8 ± 1.7% | cytotoxicity against Caco-2 cells (Caco-2 cells [5]): no substantial cytotoxicity | Papp A→B at 1 h, 50 µg/mL ([6]; HBSS pH 7.4, 1 h, read-out: Papp A to B transport): 0.57 ± 0.14 ×10⁻⁶ cm/s | efflux ratio at 1 h, 50 µg/mL ([6]; HBSS pH 7.4, read-out: efflux ratio (B to A/A to B)): 8 | C logP [7]: 0.53 | bioavailability [8]: ~ 18%

Compound: CC(=O)O[C@@]12CO[C@@H]1C[C@H](O)[C@@]1(C)C(=O)[C@H](O)C3=C(C)[C@@H](OC(=O)[C@H](O)[C@@H](NC(=O)OC(C)(C)C)c4ccccc4)C[C@@](O)([C@@H](OC(=O)c4ccccc4)[C@H]21)C3(C)C [docetaxel]
IC50 (Caco-2 cells [9]): 70 µM

Compound: COc1cccc2c1C(=O)c1c(O)c3c(c(O)c1C2=O)C[C@@](O)(C(=O)CO)C[C@@H]3O[C@H]1C[C@H](N)[C@H](O)[C@H](C)O1 [doxorubicin]
IC50 (Caco-2 cells [9]): 5 µM

The remaining lines, values ahead:

Stability Constant (Kα) [1]: 433.56 M⁻¹
Compound: 2-hydroxylpropyl-β-CD [HP-β-CD]

Stability Constant (Kα) [1]: 3114.69 M⁻¹
Compound: COCC1OC2OC3C(COC)OC(OC4C(COC)OC(OC5C(COC)OC(OC6C(COC)OC(OC7C(COC)OC(OC8C(COC)OC(OC1C(O)C2OC)C(OC)C8O)C(OC)C7O)C(OC)C6O)C(OC)C5O)C(OC)C4O)C(OC)C3O (stereo not drawn) [DM-β-CD, heptakis (2,6-di-O-methyl)-β-cyclodextrin]

Stability Constant (Kα) [1]: 552.25 M⁻¹
Compound: OC[C@H]1O[C@@H]2O[C@H]3[C@H](O)[C@@H](O)[C@@H](O[C@H]4[C@H](O)[C@@H](O)[C@@H](O[C@H]5[C@H](O)[C@@H](O)[C@@H](O[C@H]6[C@H](O)[C@@H](O)[C@@H](O[C@H]7[C@H](O)[C@@H](O)[C@@H](O[C@H]8[C@H](O)[C@@H](O)[C@@H](O[C@H]1[C@H](O)[C@H]2O)O[C@@H]8CO)O[C@@H]7CO)O[C@@H]6CO)O[C@@H]5CO)O[C@@H]4CO)O[C@@H]3CO [β-CD, β-cyclodextrin]

Stability Constant (Kα) [1]: 574.48 M⁻¹
Compound: methyl-β-cyclodextrin [M-β-CD]

Reference: paper PMC9609692, “Alternative Methotrexate Oral Formulation: Enhanced Aqueous Solubility, Bioavailability, Photostability, and Permeability” (Pharmaceutics, 2022)
